# Assay results from patent US10308643B2, “Heterocyclic compound” (Takeda Pharmaceutical Company Limited, priority 2015, dated 2019).
# What was measured:
# Format in all cases: biochemical
# [1] = target: T1, HDAC6 enzyme (Homo sapiens, UniProt Q9UBN7); assay: HDAC1/6 Enzyme Inhibitory Assay (HDAC-Glo I/II Assay kit), HDAC6; settings: 1 μM test compound, wells without enzyme = 100% inhibition; for inhibition at 1 µM: read-out: HDAC6 inhibitory rate (%) (1 μM)
# T1 construct: transducing full length HDAC1 and HDAC6 genes into Sf-9 insect cells; GST; purchased SignalChem; host or cells: Sf-9 insect cells
# T1 sequence (Q9UBN7 1-1215): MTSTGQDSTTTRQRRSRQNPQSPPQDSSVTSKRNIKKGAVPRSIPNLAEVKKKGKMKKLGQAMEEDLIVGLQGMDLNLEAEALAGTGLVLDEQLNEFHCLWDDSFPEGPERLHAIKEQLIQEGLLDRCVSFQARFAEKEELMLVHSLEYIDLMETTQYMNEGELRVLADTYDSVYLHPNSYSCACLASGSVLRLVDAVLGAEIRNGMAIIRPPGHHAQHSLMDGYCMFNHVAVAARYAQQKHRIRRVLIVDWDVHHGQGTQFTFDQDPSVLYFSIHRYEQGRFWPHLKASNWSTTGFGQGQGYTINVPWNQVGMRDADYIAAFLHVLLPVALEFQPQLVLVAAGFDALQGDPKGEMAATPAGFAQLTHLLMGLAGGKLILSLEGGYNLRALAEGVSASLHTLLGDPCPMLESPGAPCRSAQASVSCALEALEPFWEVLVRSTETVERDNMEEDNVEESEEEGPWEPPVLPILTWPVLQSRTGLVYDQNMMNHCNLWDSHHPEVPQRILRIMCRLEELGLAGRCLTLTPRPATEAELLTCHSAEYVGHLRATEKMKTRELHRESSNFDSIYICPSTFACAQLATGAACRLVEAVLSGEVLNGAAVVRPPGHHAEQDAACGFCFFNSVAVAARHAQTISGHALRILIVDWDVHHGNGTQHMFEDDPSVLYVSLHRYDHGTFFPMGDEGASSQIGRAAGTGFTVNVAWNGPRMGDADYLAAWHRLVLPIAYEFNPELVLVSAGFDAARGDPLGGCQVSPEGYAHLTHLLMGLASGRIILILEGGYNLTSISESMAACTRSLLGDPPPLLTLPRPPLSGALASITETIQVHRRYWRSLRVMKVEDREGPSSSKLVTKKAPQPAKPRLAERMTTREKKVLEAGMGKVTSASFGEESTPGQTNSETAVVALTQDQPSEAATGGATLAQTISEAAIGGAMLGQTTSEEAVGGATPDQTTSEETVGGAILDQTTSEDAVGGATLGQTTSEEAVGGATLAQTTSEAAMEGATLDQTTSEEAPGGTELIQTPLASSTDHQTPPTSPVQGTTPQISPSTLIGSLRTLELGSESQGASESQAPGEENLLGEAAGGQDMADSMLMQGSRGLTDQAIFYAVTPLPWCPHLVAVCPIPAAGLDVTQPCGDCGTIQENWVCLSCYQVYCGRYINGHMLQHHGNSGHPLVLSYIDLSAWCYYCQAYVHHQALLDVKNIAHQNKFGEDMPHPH
# Outline: (§1)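 Full-length human HDAC1 or HDAC6, expressed in Sf-9 cells and GST-purified, was preincubated with compound for 60 min at room temperature in Tris-HCl pH 7.5 buffer with MgCl2, KCl, NaCl, glutathione and Tween-20. HDAC-Glo substrate-developer was then added, and luminescence was read after 20 min. Inhibition was referenced to no-enzyme wells as 100%.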
# [2] = target: T2, HDAC1 enzyme (Homo sapiens, UniProt Q13547); assay: HDAC1/6 Enzyme Inhibitory Assay (HDAC-Glo I/II Assay kit), HDAC1; settings: 1 μM test compound, wells without enzyme = 100% inhibition; for inhibition at 1 µM: read-out: HDAC1 inhibitory rate (%) (1 μM)
# T2 construct: transducing full length HDAC1 and HDAC6 genes into Sf-9 insect cells; GST; purchased SignalChem; host or cells: Sf-9 insect cells
# Outline: as §1
# [3] = target: T3, HDAC9 enzyme (Homo sapiens, UniProt Q9UKV0); assay: HDAC9 Enzyme Inhibitory Assay (HDAC-Glo class IIa); settings: 1 μM test compound, wells without enzyme = 100% inhibition; for inhibition at 1 µM: read-out: HDAC9 inhibitory rate (%) (1 μM)
# T3 construct: transducing full length HDAC9 gene into Sf-9 insect cells; made in house; host or cells: Sf-9 insect cells
# Outline: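 Full-length human HDAC9 from Sf-9 cells, Ni-NTA purified, preincubated with compound for 60 min at room temperature in Tris-HCl pH 7.5 buffer (MgCl2, KCl, NaCl, glutathione, Tween-20). HDAC-Glo class IIa substrate-developer added; luminescence read after 20 min, with no-enzyme wells defining 100% inhibition.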
# T3 sequence (Q9UKV0 whole entry, species assumed): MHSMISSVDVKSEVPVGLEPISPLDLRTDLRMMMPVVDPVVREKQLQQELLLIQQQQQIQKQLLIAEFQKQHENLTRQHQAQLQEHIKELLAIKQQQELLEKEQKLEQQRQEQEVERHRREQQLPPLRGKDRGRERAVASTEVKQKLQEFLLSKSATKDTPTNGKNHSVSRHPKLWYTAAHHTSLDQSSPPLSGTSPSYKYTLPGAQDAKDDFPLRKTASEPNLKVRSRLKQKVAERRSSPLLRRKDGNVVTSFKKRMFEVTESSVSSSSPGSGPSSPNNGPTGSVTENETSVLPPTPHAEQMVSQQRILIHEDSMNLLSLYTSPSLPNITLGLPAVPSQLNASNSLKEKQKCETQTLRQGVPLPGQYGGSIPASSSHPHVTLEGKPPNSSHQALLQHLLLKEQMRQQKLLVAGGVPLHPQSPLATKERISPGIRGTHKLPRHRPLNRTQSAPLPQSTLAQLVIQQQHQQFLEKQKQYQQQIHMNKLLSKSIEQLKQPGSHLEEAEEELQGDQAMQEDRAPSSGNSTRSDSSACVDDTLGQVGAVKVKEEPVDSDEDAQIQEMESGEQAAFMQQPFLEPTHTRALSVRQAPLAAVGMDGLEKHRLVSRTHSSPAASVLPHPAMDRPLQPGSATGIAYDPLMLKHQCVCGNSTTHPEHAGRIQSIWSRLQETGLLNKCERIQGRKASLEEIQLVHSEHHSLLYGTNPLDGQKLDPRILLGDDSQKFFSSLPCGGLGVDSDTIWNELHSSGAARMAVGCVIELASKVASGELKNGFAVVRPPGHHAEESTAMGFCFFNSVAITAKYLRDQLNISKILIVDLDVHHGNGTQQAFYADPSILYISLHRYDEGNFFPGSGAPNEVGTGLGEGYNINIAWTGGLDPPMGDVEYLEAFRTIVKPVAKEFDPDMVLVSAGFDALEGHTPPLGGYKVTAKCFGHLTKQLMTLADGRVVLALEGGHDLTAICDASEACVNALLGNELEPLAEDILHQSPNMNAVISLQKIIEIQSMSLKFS
# T2 sequence (Q13547 whole entry): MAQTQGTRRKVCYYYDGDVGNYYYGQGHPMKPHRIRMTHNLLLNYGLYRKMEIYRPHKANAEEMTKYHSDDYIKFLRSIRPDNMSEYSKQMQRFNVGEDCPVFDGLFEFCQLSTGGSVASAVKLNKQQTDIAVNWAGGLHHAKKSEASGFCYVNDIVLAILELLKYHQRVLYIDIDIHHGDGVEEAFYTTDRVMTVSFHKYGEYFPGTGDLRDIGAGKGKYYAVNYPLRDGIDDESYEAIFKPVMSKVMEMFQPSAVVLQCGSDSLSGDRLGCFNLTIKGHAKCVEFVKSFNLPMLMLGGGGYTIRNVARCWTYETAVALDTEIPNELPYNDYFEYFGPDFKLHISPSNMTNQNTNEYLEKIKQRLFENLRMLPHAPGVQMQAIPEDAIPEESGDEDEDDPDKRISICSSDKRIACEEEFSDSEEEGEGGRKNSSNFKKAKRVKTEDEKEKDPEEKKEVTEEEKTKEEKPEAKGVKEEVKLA
inhibition at 1 µM [1] [%],inhibition at 1 µM [2] [%],inhibition at 1 µM [3] [%],HDAC1 inhibitory rate (%) (1 μM) [2],HDAC6 inhibitory rate (%) (1 μM) ([1]; 1 µM),HDAC9 inhibitory rate (%) (1 μM) ([3]; 1 µM),Compound
-3,-6,54,–,–,–,"N[C@@H]1CCC[C@H]1N1Cc2ccc(-c3noc(C(F)(F)F)n3)cc2C1=O [Example 142, 2-((1R,2R)-2-aminocyclopentyl)-6-(5-(trifluoromethyl)-1,2,4-oxadiazol-3-yl)isoindolin-1-one]"
92,7,39,–,–,–,"O=C1c2cc(-c3noc(C(F)(F)F)n3)ccc2CN1[C@@H]1CCc2ccccc21 [Example 25, 2-((1R)-2,3-dihydro-1H-inden-1-yl)-6-(5-(trifluoromethyl)-1,2,4-oxadiazol-3-yl)isoindolin-1-one]"
85,31,89,–,–,–,"O=C(c1ccccc1)N1CC(N2Cc3ncc(-c4noc(C(F)(F)F)n4)cc3C2=O)C1 [Example 76, 6-(1-benzoylazetidin-3-yl)-3-(5-(trifluoromethyl)-1,2,4-oxadiazol-3-yl)-6,7-dihydro-5H-pyrrolo[3,4-b]pyridin-5-one]"
94,39,82,–,–,–,"O=C1c2ccc(-c3noc(C(F)(F)F)n3)cc2CN1[C@@H]1CCNC[C@H]1c1ccccc1 (relative stereo) [Example 136, trans-2-(3-phenylpiperidin-4-yl)-5-(5-(trifluoromethyl)-1,2,4-oxadiazol-3-yl)isoindolin-1-one]"
99,78,97,–,–,–,"O=C1c2cc(-c3noc(C(F)(F)F)n3)ccc2CN1[C@H]1CCNC[C@@H]1c1ccccc1 [Example 31, 2-((3S,4S)-3-phenylpiperidin-4-yl)-6-(5-(trifluoromethyl)-1,2,4-oxadiazol-3-yl)isoindolin-1-one]"
100,70,95,–,–,–,"O=C(C1CC1)N1C[C@@H](N2Cc3ccc(-c4noc(C(F)(F)F)n4)cc3C2=O)[C@H](c2ccccc2)C1 (relative stereo) [Example 11, trans-2-(1-(cyclopropylcarbonyl)-4-phenylpyrrolidin-3-yl)-6-(5-(trifluoromethyl)-1,2,4-oxadiazol-3-yl)isoindolin-1-one]"
93,8,80,–,–,–,"CC(=O)N1CC[C@H](N2Cc3ccc(-c4noc(C(F)(F)F)n4)cc3C2=O)[C@H](c2ccccc2)C1 [Example 21, 2-((3R,4S)-1-acetyl-3-phenylpiperidin-4-yl)-6-(5-(trifluoromethyl)-1,2,4-oxadiazol-3-yl)isoindolin-1-one]"
98,8,64,–,–,–,"O=C1CCCN1[C@@H]1COCC[C@H]1N1Cc2ccc(-c3noc(C(F)(F)F)n3)cc2C1=O [Example 177, 2-((3S,4R)-3-(2-oxopyrrolidin-1-yl)tetrahydro-2H-pyran-4-yl)-6-(5-(trifluoromethyl)-1,2,4-oxadiazol-3-yl)isoindolin-1-one]"

# The remaining lines, values behind:
Compound,inhibition at 1 µM [1] [%],inhibition at 1 µM [2] [%],inhibition at 1 µM [3] [%],HDAC1 inhibitory rate (%) (1 μM) [2],HDAC6 inhibitory rate (%) (1 μM) ([1]; 1 µM),HDAC9 inhibitory rate (%) (1 μM) ([3]; 1 µM)
"O=C(N[C@@H]1CCOC[C@H]1N1Cc2ccc(-c3noc(C(F)(F)F)n3)cc2C1=O)[C@H]1CC1(F)F [Example 190, (1R)-2,2-difluoro-N-((3S,4R)-3-(1-oxo-6-(5-(trifluoromethyl)-1,2,4-oxadiazol-3-yl)-1,3-dihydro-2H-isoindol-2-yl)tetrahydro-2H-pyran-4-yl)cyclopropanecarboxamide]",100,19,84,–,–,–
"CC(=O)N1CC(N2Cc3ncc(-c4noc(C(F)(F)F)n4)cc3C2=O)C1 [Example 75, 6-(1-acetylazetidin-3-yl)-3-(5-(trifluoromethyl)-1,2,4-oxadiazol-3-yl)-6,7-dihydro-5H-pyrrolo[3,4-b]pyridin-5-one]",87,11,79,–,–,–
"O=C1c2cc(-c3noc(C(F)(F)F)n3)ccc2CN1[C@@H]1CCCC[C@H]1NC(=O)C1(O)CCC1 [Example 173, 1-hydroxy-N-((1R,2R)-2-(1-oxo-6-(5-(trifluoromethyl)-1,2,4-oxadiazol-3-yl)-1,3-dihydro-2H-isoindol-2-yl)cyclohexyl) cyclobutanecarboxamide]",100,5,42,–,–,–
"O=C(N[C@@H]1CCCC[C@H]1N1Cc2ccc(-c3noc(C(F)(F)F)n3)cc2C1=O)N1CC2CC1CO2 (stereo partly drawn) [Example 156, N-((1R,2R)-2-(1-oxo-6-(5-(trifluoromethyl)-1,2,4-oxadiazol-3-yl)-1,3-dihydro-2H-isoindol-2-yl)cyclohexyl)-2-oxa-5-azabicyclo[2.2.1]heptane-5-carboxamide]",96,–,8,−1,–,–
"O=C(N[C@@H]1CCCC[C@H]1N1Cc2ccc(-c3noc(C(F)(F)F)n3)cc2C1=O)C1CCOCC1 [Example 37, N-((1R,2R)-2-(1-oxo-6-(5-(trifluoromethyl)-1,2,4-oxadiazol-3-yl)-1,3-dihydro-2H-isoindol-2-yl)cyclohexyl)tetrahydro-2H-pyran-4-carboxamide]",96,1,19,–,–,–
"O=C(N[C@@H]1CCCC[C@H]1N1Cc2ccc(-c3noc(C(F)(F)F)n3)cc2C1=O)C1COC1 [Example 127, N-((1R,2R)-2-(1-oxo-6-(5-(trifluoromethyl)-1,2,4-oxadiazol-3-yl)-1,3-dihydro-2H-isoindol-2-yl)cyclohexyl)oxetane-3-carboxamide]",99,5,47,–,–,–
"CC(=O)N1CCC(N2Cc3ncc(-c4noc(C(F)(F)F)n4)cc3C2=O)C1 (stereo not drawn) [Example 69, 6-(1-acetylpyrrolidin-3-yl)-3-(5-(trifluoromethyl)-1,2,4-oxadiazol-3-yl)-6,7-dihydro-5H-pyrrolo[3,4-b]pyridin-5-one]",91,15,81,–,–,–
"CC1(C(=O)N[C@@H]2CCOC[C@H]2N2Cc3ccc(-c4noc(C(F)(F)F)n4)cc3C2=O)COC1 [Example 192, 3-methyl-N-((3S,4R)-3-(1-oxo-6-(5-(trifluoromethyl)-1,2,4-oxadiazol-3-yl)-1,3-dihydro-2H-isoindol-2-yl)tetrahydro-2H-pyran-4-yl)oxetane-3-carboxamide]",99,6,40,–,–,–
"CC1(C(=O)N[C@@H]2CCCC[C@@H]2N2Cc3ccc(-c4noc(C(F)(F)F)n4)cc3C2=O)COC1 (relative stereo) [Example 200, 3-methyl-N-(cis-2-(1-oxo-6-(5-(trifluoromethyl)-1,2,4-oxadiazol-3-yl)-1,3-dihydro-2H-isoindol-2-yl)cyclohexyl)oxetane-3-carboxamide]",96,35,85,–,–,–
"O=C(N[C@@H]1CCOC[C@@H]1N1Cc2ccc(-c3noc(C(F)(F)F)n3)cc2C1=O)C1CC1(F)F (single isomer, unassigned) [Example 212, (1R) or (1S)-2,2-difluoro-N-((3R,4R)-3-(1-oxo-6-(5-(trifluoromethyl)-1,2,4-oxadiazol-3-yl)-1,3-dihydro-2H-isoindol-2-yl)tetrahydro-2H-pyran-4-yl)cyclopropanecarboxamide]",–,–,–,12,82,58
